For 7 molecules, ED50 results are on record in patent US5173490A, “Benzisoxazole and benzisothiazole compounds” (Adir et Compagnie, priority 1991, dated 1992).

Broadly, the ED50 is the dose at which the effect has come halfway, by size or by number of responders.

The subject of one test is stereotypies (bruxism) induced by methyl phenidate. Nature of the test: Test of the stereotypies induced by methyl phenidate in rats (inhibition of bruxism). The conditions noted are these: Rattus norvegicus, ip, 0.5 h, read-out: ED50 (mean effective dose permitting inhibition of bruxism by 50%). The class given is in vivo, male Wistar rats. As for the experimental part: 24 male Wistar rats which weighed between 220 and 240 g and which had eaten nothing for approximately 24 hours were used for this test. Each animal receives a first treatment (reference compound, compound of the invention, or solvent) at a given time before a second treatment (methyl phenidate or physiological serum), which is effected by the i.p. route at the time designated T0. Among the animals used for a test, […] serve as control and receive the following treatments: serum+serum i.p.: 1 animal (serum control); solvent+ 40 mg/kg i.p. methyl phenidate: 2 animals (40 mg/kg i.p. methyl phenidate control); and solvent+0.16, 0.63, 2.5 or 10 mg/kg i.p. of methyl phenidate: 1 animal (0.16, 0.63, 2.5 or 10 mg/kg i.p. methyl phenidate controls).
The test products were administered at given times before the injection of 40 mg/kg i.p. of methyl phenidate at T0. Each animal is observed for a period of 10 seconds. Observations of behaviour were carried out 30 minutes after the treatment with methyl phenidate. A total of 10 observation periods is carried out for each rat at time T30 min. During these observations, the presence (1) or absence (0) of stereotypy is noted.
`CN(C)CCCN1c2ccccc2Sc2ccc(Cl)cc21` [chlorpromazine, reference compound]: the ED50 was 1.4 mg/kg.

The test is the same for the next values; noted with them: Rattus norvegicus, ip, 0.5 h; rats; i.p.; given before 40 mg/kg i.p. methyl phenidate; observed 30 min after methyl phenidate; read-out: ED50 (mean effective dose permitting inhibition of bruxism by 50%).
As to `Fc1ccc2c(N3CCN(CC4Cc5ccccc54)CC3)noc2c1` (racemic) [Example 1, (R,S)-3-{1-[(benzocyclobutan-1-yl)methyl]piperazin-4-yl}-6-fluoro-1,2-benzisoxazole], the ED50 was 0.31 mg/kg.
The same measure, in the same setting: with `c1ccc2c(c1)CC2CN1CCN(c2nsc3ccccc23)CC1` (racemic) [Example 4, (R,S)-3-{1-[(benzocyclobutan-1-yl)methyl]piperazin-4-yl}-1,2-benzisothiazole] the figure was 10 mg/kg; with `c1ccc2c(c1)CC2CN1CCN(c2noc3ccccc23)CC1` (racemic) [Example 6, (R,S)-3-{1-[(benzocyclobutan-1-yl)methyl]piperazin-4-yl}-1,2-benzisoxazole], 1.25 mg/kg.
Still for that read-out and setting: with `COc1cc2c(cc1OC)C(CN1CCN(c3noc4cc(F)ccc34)CC1)C2` (racemic) [Example 17, (R,S)-3-{1-[(4,5-dimethoxybenzocyclobutan-1-yl)methyl]-piperazin-4-yl}-6-fluoro-1,2-benzisoxazole] the figure was 2.5 mg/kg.
The same measure, in the same setting: with `Fc1ccc2c(N3CCN(CC4CCc5ccccc54)CC3)noc2c1` (racemic) [Example 18, (R,S)-3-{1-[(indan-1-yl)methyl]piperazin-4-yl}-6-fluoro-1,2-benzisoxazole] the figure was 10 mg/kg; with `COc1cc2c(cc1OC)C(CN1CCN(c3noc4ccccc34)CC1)C2` (racemic) [Example 19, (R,S)-3-{1-[(4,5-dimethoxybenzocyclobutan-1-yl)-methyl]piperazin-4-yl}-1,2-benzisoxazole], 1.25 mg/kg.
